Tumour growth inhibition data for one compound are collected here from patent US20260207603A1, “COMBINATION THERAPY FOR CANCER TREATMENT” (Hoffmann-La Roche Inc., priority 2022, published 2026).

Each structure is given as a SMILES string.

The subject of one assay is HT29 xenograft tumors. The assay can be described thus: in vivo anti-tumor activity on HT29 xenograft tumors (BRAF V600E colorectal model). Set-up: species or system BALB/c Nude mice. The note with it: monotherapy PO QD, 140 mpk, 60 mpk or 30 mpk; compared with encorafenib 24 mpk; FIG. 6. An excerpt: (§1) FIG. 1 illustrates a schematic representation of the study design reported in FIG. 2 to and specifies the dosage regime that was used for treating the different cohorts in a colorectal tumour model bearing LS411N xenografts, according to some embodiments. Both models are CRC models and present the BRAF V600E mutation.
FIG. […] Mice were, for example, treated (QD) until day 43 and the graph expresses mean tumour volume [mm3] for the different cohorts.
FIG. 7 reports in vivo anti-tumor activity of a combination of R07276389 at 140 mpk or of encorafenib at 24 mpk, in each instance with 20 mpk of cetuximab on HT29 xenograft tumors in BALB/c Nude mice (10 mice/cohort), according to some embodiments. Monotherapy controls were, for example, also included and the mice were treated (QD) until day 43 and the graph expresses mean tumour volume [mm3] for the different cohorts.
FIG. 8 reports in vivo anti-tumor activity of a combination of R07276389 at 60 mpk or of encorafenib at 24 mpk, in each instance with 20 mpk of cetuximab on HT29 xenograft tumors in BALB/c Nude mice (10 mice/cohort), according to some embodiments. Monotherapy controls were, for example, also included and the mice were treated (QD) until day 43 and the graph expresses mean tumour volume [mm3] for the different cohorts. […]

The next assay relates to LS411N xenograft tumors. Kind of assay: in vivo anti-tumor activity on LS411N xenograft tumors (BRAF V600E colorectal model). Set-up: species or system BALB/c Nude mice. The note with it: monotherapy PO QD, 20 mpk, 50 mpk or 140 mpk; compared with encorafenib 24 mpk; FIG. 2.
Text: as §1
FIG. 2 […], or of encorafenib at 24 mpk on LS411N xenograft tumors in BALB/c Nude mice (10 mice/cohort), according to some embodiments. Mice were, for example, treated (QD) until day 43 and the graphs express mean tumour volume [mm3] for the different cohorts.
FIG. 3 reports in vivo anti-tumor activity of a combination of R07276389 at 140 mpk or of encorafenib at 24 mpk, in each instance with 20 mpk of cetuximab on LS411N xenograft tumors in BALB/c Nude mice (10 mice/cohort), according to some embodiments. Monotherapy controls were, for example, also included and the mice were treated (QD) until day 43 and the graph expresses mean tumour volume [mm3] for the different cohorts.
FIG. 4 reports in vivo anti-tumor activity of a combination of R07276389 at 60 mpk or of encorafenib at 24 mpk, in each instance with 20 mpk of cetuximab on LS411N xenograft tumors in BALB/c Nude mice (10 mice/cohort), according to some embodiments. […]

Consider `Cn1cnc2ccc(Oc3c(F)ccc(NS(=O)(=O)N4CC[C@@H](F)C4)c3C#N)cc2c1=O` [Compound R07276389, (3R)-N-[2-cyano-4-fluoro-3-(3-methyl-4-oxo-quinazolin-6-yl)oxy-phenyl]-3-fluoro-pyrrolidine-1-sulfonamide], for which the tumour growth inhibition result with HT29 xenograft tumors and with LS411N xenograft tumors was “dose-dependent tumour growth inhibition that was significantly higher when compared with encorafenib” throughout.
